Experimental data as given in patent US20230174608A1, “Polypeptide Derivative Having Dual Receptor Agonistic Action and Use Thereof” (TIANJIN INSTITUTE OF PHARMACEUTICAL RESEARCH CO., LTD., priority 2020, published 2023).
*1 amine or outer side, *2 acyl side, *3 side chain or, on linkers, in order; H or OH if unused. Where a SMILES comes first, the peptide text is derived from it. Side-chain parts run from the residue outwards. [ ]: non-standard residue; d: D form. The star is where a group is joined. γGlu = O=C(O)[C@H](CCC(=O)[*:2])N[*:1]; Palmitoyl = CCCCCCCCCCCCCCCC(=O)*; AEEA = NCCOCCOCC(=O)O; Aib = CC(C)(N)C(=O)O

Experiments:
GCGR = molecular target: T1, GCGR (Homo sapiens, UniProt P47871); experiment: GC receptor-mediated cAMP production in vitro; type: cell-based; settings: HEK293 cell line stably expressing GCGR
T1 construct: expressed in transfected cells
T1 sequence (P47871 26-477, species assumed): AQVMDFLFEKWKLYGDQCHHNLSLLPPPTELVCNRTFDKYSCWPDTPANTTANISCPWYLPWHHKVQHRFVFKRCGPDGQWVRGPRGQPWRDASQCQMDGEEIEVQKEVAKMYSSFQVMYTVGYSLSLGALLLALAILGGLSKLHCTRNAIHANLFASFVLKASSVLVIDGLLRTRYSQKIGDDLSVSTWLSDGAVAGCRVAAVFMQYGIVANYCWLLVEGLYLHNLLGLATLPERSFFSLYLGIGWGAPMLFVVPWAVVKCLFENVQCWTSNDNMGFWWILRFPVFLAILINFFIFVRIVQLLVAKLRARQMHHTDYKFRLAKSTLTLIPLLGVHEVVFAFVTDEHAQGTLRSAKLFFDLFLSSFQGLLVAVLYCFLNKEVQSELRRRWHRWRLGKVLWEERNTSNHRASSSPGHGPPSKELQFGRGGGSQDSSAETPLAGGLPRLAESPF
Description: (§1) HEK293 cell line stably expressing GLP-1R or GCGR was used for screening GLP-1R and GCGR agonist.
(§2) Preparation of test sample: each compound was prepared into 100 μM stock solution, and then gradually diluted to working concentrations of 1 μM, 100 nM, 10 nM, 1 nM, 10^−1 nM, 10^−2 nM, 10^−3 nM, and H2O.
(§3) 1) Each compound to be tested was mixed with a serum-free medium (containing 0.1% BSA and 0.5 mM IBMX) to obtain a solution at a concentration 2 times the working concentration.
(§4) 2) The cells were digested, suspended in a serum-free medium (containing 0.5 mM IBMX), counted, and placed in a 384-well plate at a density of 1,000 cells/5 μL/well, then 5 μL of the testing compound was added, and the plate was placed in dark for reaction for 30 min.
(§5) 3) After the reaction was completed, a substrate for detecting cAMP was added, and the plate was placed in dark for reaction at the room temperature for 60 min.
(§6) 4) After the reaction was completed, the plate was placed on the Envision2104 multifunctional microplate reader for detection, and the ratio of optical density (OD) values at 665 nm and 615 nm were read out.

GLP-1R = molecular target: T2, GLP-1R (Homo sapiens, UniProt P43220); experiment: GLP-1 receptor-mediated cAMP production in vitro; type: cell-based; settings: HEK293 cell line stably expressing GLP-1R
T2 construct: expressed in transfected cells
T2 sequence (P43220 24-463, species assumed): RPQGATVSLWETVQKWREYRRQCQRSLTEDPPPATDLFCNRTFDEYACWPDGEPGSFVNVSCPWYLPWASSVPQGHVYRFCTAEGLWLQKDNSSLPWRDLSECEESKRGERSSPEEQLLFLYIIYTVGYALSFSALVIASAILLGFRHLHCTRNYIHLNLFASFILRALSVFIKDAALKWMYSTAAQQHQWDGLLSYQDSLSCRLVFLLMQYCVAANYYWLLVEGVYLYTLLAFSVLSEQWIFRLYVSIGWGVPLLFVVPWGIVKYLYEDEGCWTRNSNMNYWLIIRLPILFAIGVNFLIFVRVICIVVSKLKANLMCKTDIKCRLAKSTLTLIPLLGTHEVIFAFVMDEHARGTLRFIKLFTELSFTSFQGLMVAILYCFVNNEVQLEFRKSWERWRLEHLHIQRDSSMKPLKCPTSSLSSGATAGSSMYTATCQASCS
Description: as §1, §2, §3, §4, §5, §6

Compound	EC50 (GCGR) [nM]	EC50 (GLP-1R) [nM]
CCCCCCCCCCCCCCCC(=O)N[C@@H](CCC(=O)NCCOCCOCC(=O)NCCOCCOCC(=O)NCCCC[C@H](NC(=O)[C@H](C)NC(=O)[C@H](C)NC(=O)[C@H](CCCNC(=N)N)NC(=O)[C@H](CCC(=O)O)NC(=O)[C@H](CCC(=O)O)NC(=O)[C@H](CC(C)C)NC(=O)[C@H](Cc1ccc(O)cc1)NC(=O)[C@H](CCCCN)NC(=O)[C@H](CO)NC(=O)[C@H](Cc1ccc(O)cc1)NC(=O)[C@H](CC(=O)O)NC(=O)[C@H](CO)NC(=O)[C@@H](NC(=O)[C@H](Cc1ccccc1)NC(=O)[C@@H](NC(=O)CNC(=O)[C@H](CCC(N)=O)NC(=O)C(C)(C)NC(=O)[C@@H](N)Cc1c[nH]cn1)[C@@H](C)O)[C@@H](C)O)C(=O)N[C@@H](CCC(=O)O)C(=O)N[C@@H](Cc1ccccc1)C(=O)N[C@H](C(=O)N[C@@H](C)C(=O)N[C@@H](Cc1c[nH]c2ccccc12)C(=O)N[C@@H](CC(C)C)C(=O)N[C@@H](CCC(=O)O)C(=O)N[C@@H](CO)C(=O)NCC(=O)NCC(N)=O)[C@@H](C)CC)C(=O)O [dgc009] (H-H[Aib]QGTFTSDYSKYLEERAAK([AEEA-AEEA-γGlu-Palmitoyl])EFIAWLESGG-NH2; N-terminus assumed)	8.22	0.092
CCCCCCCCCCCCCCCC(=O)N[C@@H](CCC(=O)NCCCC[C@H](NC(=O)[C@H](C)NC(=O)[C@H](C)NC(=O)[C@H](CCCNC(=N)N)NC(=O)[C@H](CCC(=O)O)NC(=O)[C@H](CC(=O)O)NC(=O)[C@H](CC(C)C)NC(=O)[C@H](Cc1ccc(O)cc1)NC(=O)[C@H](CCCCN)NC(=O)[C@H](CO)NC(=O)[C@H](Cc1ccc(O)cc1)NC(=O)[C@H](CC(=O)O)NC(=O)[C@H](CO)NC(=O)[C@@H](NC(=O)[C@H](Cc1ccccc1)NC(=O)[C@@H](NC(=O)CNC(=O)[C@H](CCC(N)=O)NC(=O)C(C)(C)NC(=O)[C@@H](N)Cc1c[nH]cn1)[C@@H](C)O)[C@@H](C)O)C(=O)N[C@@H](CCC(=O)O)C(=O)N[C@@H](Cc1ccccc1)C(=O)N[C@H](C(=O)N[C@@H](C)C(=O)N[C@@H](Cc1c[nH]c2ccccc12)C(=O)N[C@@H](CC(C)C)C(=O)N[C@@H](CCC(=O)O)C(=O)NCC(=O)N[C@@H](CCC(=O)O)C(=O)NCC(N)=O)[C@@H](C)CC)C(=O)O [dgc018] (HELM PEPTIDE1{H.[Aib].Q.G.T.F.T.S.D.Y.S.K.Y.L.D.E.R.A.A.K.E.F.I.A.W.L.E.G.E.G.[am]}|PEPTIDE2{[CCCCCCCCCCCCCCCC(=O)[*:2]].[gGlu]}$PEPTIDE1,PEPTIDE2,20:R3-2:R2$$$V2.0; N-terminus assumed)	1.3	0.401
CCCCCCCCCCCCCCCC(=O)N[C@@H](CCC(=O)NCCCC[C@H](NC(=O)[C@H](C)NC(=O)[C@H](C)NC(=O)[C@H](CCCNC(=N)N)NC(=O)[C@H](CCC(=O)O)NC(=O)[C@H](CCC(=O)O)NC(=O)[C@H](CC(C)C)NC(=O)[C@H](Cc1ccc(O)cc1)NC(=O)[C@H](CCCCN)NC(=O)[C@H](CO)NC(=O)[C@H](Cc1ccc(O)cc1)NC(=O)[C@H](CC(=O)O)NC(=O)[C@H](CO)NC(=O)[C@@H](NC(=O)[C@H](Cc1ccccc1)NC(=O)[C@@H](NC(=O)CNC(=O)[C@H](CCC(N)=O)NC(=O)C(C)(C)NC(=O)[C@@H](N)Cc1c[nH]cn1)[C@@H](C)O)[C@@H](C)O)C(=O)N[C@@H](CCC(=O)O)C(=O)N[C@@H](Cc1ccccc1)C(=O)N[C@H](C(=O)N[C@@H](C)C(=O)N[C@@H](Cc1c[nH]c2ccccc12)C(=O)N[C@@H](CC(C)C)C(=O)N[C@@H](CCC(=O)O)C(=O)NCC(=O)N[C@@H](CCC(=O)O)C(=O)NCC(N)=O)[C@@H](C)CC)C(=O)O [dgc019] (HELM PEPTIDE1{H.[Aib].Q.G.T.F.T.S.D.Y.S.K.Y.L.E.E.R.A.A.K.E.F.I.A.W.L.E.G.E.G.[am]}|PEPTIDE2{[CCCCCCCCCCCCCCCC(=O)[*:2]].[gGlu]}$PEPTIDE1,PEPTIDE2,20:R3-2:R2$$$V2.0; N-terminus assumed)	1.83	0.792
